Experiments:
[1] = test system: WKY rat isolated aorta; experiment: vasodilation of phenylephrine-contracted WKY rat isolated aorta with and without ODQ
Experimental: Male Wistar Kyoto (WKY; Charles River Laboratories, Inc., Raleigh, NC, USA) were anesthetized with inhaled isoflurane (5% in O2) and euthanized by exsanguination. Thoracic aorta was isolated, cleaned of adherent tissue, cut into 3 mm rings, and suspended in 10 mL organ baths containing Krebs–Henseleit buffer (KHB) of the following composition (mM): NaCl, 112.0; KCl, 4.7; KH2PO4, 1.2; MgSO4, 1.2; CaCl2, 2.5; NaHCO3, 25.0; glucose, 11.0. KHB was maintained at 37°C and aerated with 95%O2:5%CO2 (pH 7.4). Changes in isometric force were measured under 1g optimal resting tension using MLT0201/D force-displacement transducers (Letica, Barcelona, Spain) and recorded digitally (Chart 5.0 software, ADInstruments, Colorado Springs, CO, USA). After a 1 h equilibration period, each tissue was contracted to equilibrium with 60 mM KCl, washed with KHB and allowed to relax to the resting tension. The 60 mM KCl contraction was repeated and subsequent contractile responses were normalized to this second KCl response. Each tissue was then contracted to equilibration with 1 μM phenylephrine, washed with KHB and allowed to relax to the resting tension. In order to further investigate the mechanism by which BAY 60-4552 and GSK2181236A were modulating sGC function, the vasodilatory effects of both compounds were assessed in the presence and absence of ODQ, a heme-site inhibitor of sGC. Following a 20 min pre-treatment with DMSO vehicle (0.1% final concentration, v/v) or ODQ (10 μM), aortae were contracted with 0.3 μM phenylephrine (an approximate EC80 concentration). Once the contractile response to phenylephrine reached a plateau (∼10 min), contractile tone was reversed by adding cumulative concentrations of BAY 60-4552 or GSK2181236A to the tissue baths at log increments (0.1 nM to 10 μM).

[2] = test system: SHR-SP; experiment: chronic treatment of SHR-SP on high salt/fat diet: survival, blood pressure, renal and cardiac function; assay type: in vivo, rat; conditions: for CO (cardiac output) / EDV (end diastolic volume) / EF (ejection fraction) / ESV (end systolic volume) / SV (stroke volume) / LVM/BW (left ventricular mass to body weight ratio): echocardiography after 7 weeks of HSFD; for LVM/BW (left ventricular mass to body weight ratio): HSFD control 3.08 ± 0.06; for survival rate: HSFD control 14%; for urine output: HSFD control 111 ± 21; for MAP: HSFD control 192 ± 10; for effect on MAP compared to the HSFD controls: lower doses: 0.1 mg/kg/day GSK2181236A, 0.3 mg/kg/day BAY 60-4552
Source text: The SHR-SP is an established model of genetic hypertension. […] As such, a cohort of HSFD SHR-SP was established as a model of cardiovascular disease associated with chronic oxidative stress in this study.
A subgroup of animals (n = 45) was anesthetized with isoflurane and surgically implanted with radiotelemetry transmitters (PhysioTel PA-C40, Data Sciences International, St. Paul, MN, USA). The transmitter catheter was threaded through the femoral artery into the abdominal aorta. At 11–12 weeks of age, baseline blood pressure and heart rate were measured for 5 days (10 s recordings every 5 min) in normal caging, then rats were acclimated to metabolic caging for a minimum of 48 h before a basal 24 h urine sample and blood were collected. […] The ND group was maintained on normal chow and water throughout the study. […] Rats displaying signs of morbidity which included piloerection, lack of grooming, persistent body weight loss, lethargy, or seizure/convulsions, were promptly euthanized.
Treatments were administered in respective diets starting 1 week after the initiation of HSFD. Urine collections were repeated on weeks 2, 4, 6, and 8 and blood was sampled in the morning after each 24 h collection period for assessment of renal function. Plasma creatinine and urine sodium, microalbumin (MALB), and creatinine were ascertained using an AU640 Chemistry Analyzer (Olympus America, Inc., Center Valley, PA, USA). Plasma compound concentrations were determined as described above.
During week 7, cardiac function and morphometry were evaluated via transthoracic echocardiography. Rats were anesthetized with isoflurane (2–4% induction and 1–3% maintenance). Two-dimensional gray scale images of the left ventricle were obtained in the short axis plane at mid-ventricle level and in the parasternal long axis plane using a GE Vivid 7 system (GE Medical Systems, Milwaukee, WI, USA) and stored as digital cineloops. Pulse wave Doppler recordings from the LV outflow were obtained to determine heart rate. All images were analyzed by a single observer using a GE EchoPac (GE Medical Systems, Milwaukee, WI, USA). LV volumes were calculated as V=5/6(LVA×LVL) where LVA is area of LV chamber from the short axis view and LVL is the LV length from the long axis view at end diastole and end systole. […] Analysis was performed on three to five cardiac cycles.

[3] = test system: SHR-SP cardiac tissue; experiment: cardiac gene expression in HSFD SHR-SP after chronic treatment; assay type: in vivo, rat
Experimental: On week 8, isoflurane anesthetized rats were euthanized via exsanguination. The thoracic aorta was excised for assessment of endothelial function as described below. Hearts were snap-frozen in liquid nitrogen and stored at −80°C for later analysis of gene expression changes associated with cardiac hypertrophy and fibrosis (see below for procedure details).
Cardiac gene expression was analyzed following chronic (7 week) BAY 60-4552 or GSK2181236A treatment in HSFD SHR-SP. Hearts were homogenized in Trizol and RNA was extracted using the RNeasy Plus Mini kit protocol (Qiagen, Valencia, CA, USA) with a 40 μL elution volume. RNA was quantified using a Nanodrop Spectrophotometer ND-1000 (Thermo Fisher Scientific, Wilmington, DE, USA) and converted to cDNA using the High Capacity cDNA Reverse Transcription Kit (Applied Biosystems, Carlsbad, CA, USA). Taqman assays were performed using a 384-well plate format with individual primer-probes and Taqman Universal PCR Master Mix (Applied Biosystems) and run on the 7900 HT Fast Real-Time PCR System (Applied Biosystems). SDS 2.3 software (Applied Biosystems) was used to obtain raw Ct values with manual threshold set at 0.10. Array Studio software (version 3.6.2; OmicSoft Corporation, Cary, NC, USA) was used to normalize gene expression data, by analysis of covariance, to the housekeeper genes β-2-microglobulin (B2m) and peptidyl-prolyl cis-trans isomerase A (Ppia). No outliers were detected by means of principal component analysis.
The following genes were analyzed: α-skeletal actin (Acta1), type 1 collagen-alpha 1 (Col1a1), type 3 collagen-alpha 1 (Col3a1), connective tissue growth factor (CTGF; Ctgf), matrix metalloproteinase 2 (MMP2; Mmp2), matrix metalloproteinase 9 (MMP9; Mmp9), α-myosin heavy chain (α-MHC; Myh6), β-myosin heavy chain (β-MHC; Myh7); atrial natriuretic factor (ANF; Nppa), brain-type natriuretic peptide (BNP; Nppb), cGMP-specific phosphodiesterase 5A (PDE5A; Pde5a), type 2 cGMP-dependent protein kinase (PKG2; Prkg2), and transforming growth factor beta 1 (TGF-β1; Tgfb1).

For COC(=O)Nc1c(N)nc(-c2nn(Cc3ccccc3F)c3ncccc23)nc1N [BAY 60-4552], the “reduction of vasodilatory response by ODQ” value ([1]; 0.1 μM compound, ODQ 10 μM) was 48%, the “reduction of vasodilatory response by ODQ” value ([1]; 1 μM compound, ODQ 10 μM) was 30% and the “reduction of MAP compared to HSFD controls” value ([2]; 3 mg/kg/day for 7 weeks, P > 0.05) was 17 mmHg. The “CO (cardiac output)” value ([2]; HSFD + 0.3 mg/kg/day) was 86 ± 6 mL/min, the “EDV (end diastolic volume)” value ([2]; HSFD + 0.3 mg/kg/day) was 356 ± 21 µL and the “EF (ejection fraction)” value ([2]; HSFD + 0.3 mg/kg/day) was 69 ± 2%. For the same molecule, the “ESV (end systolic volume)” value ([2]; HSFD + 0.3 mg/kg/day) was 111 ± 11 µL, the “SV (stroke volume)” value ([2]; HSFD + 0.3 mg/kg/day) was 245 ± 14 µL and the “LVM/BW (left ventricular mass to body weight ratio)” value ([2]; HSFD + 0.3 mg/kg/day) was 3.06 ± 0.07 mg/g. For the same molecule, the “CO (cardiac output)” value ([2]; HSFD + 3.0 mg/kg/day) was 89 ± 6 mL/min, the “EDV (end diastolic volume)” value ([2]; HSFD + 3.0 mg/kg/day) was 379 ± 21 µL and the “EF (ejection fraction)” value ([2]; HSFD + 3.0 mg/kg/day) was 67 ± 1%. The “ESV (end systolic volume)” value ([2]; HSFD + 3.0 mg/kg/day) was 120 ± 9 µL, the “SV (stroke volume)” value ([2]; HSFD + 3.0 mg/kg/day) was 259 ± 13 µL and the “LVM/BW (left ventricular mass to body weight ratio)” value ([2]; HSFD + 3.0 mg/kg/day) was 2.85 ± 0.10 mg/g. For the same molecule, the survival rate ([2]; HSFD, 0.3 mg/kg/day for 7 week) was 46%, the urine output ([2]; HSFD, 0.3 mg/kg/day for seven weeks) was 79 ± 11 mL/day and the survival rate ([2]; HSFD, 3 mg/kg/day for 7 week) was 69%. For the same molecule, the MAP ([2]; HSFD, 3 mg/kg/day for 7 weeks) was 175 ± 1 mmHg, the urine output ([2]; HSFD, 3.0 mg/kg/day for seven weeks) was 56 ± 10 mL/day and the sodium excretion ([2]; HSFD, 3.0 mg/kg/day, HSFD control 26.4 ± 2.2) was 16 ± 2 mmol/day. For the same molecule, the MALB excretion ([2]; HSFD, 3.0 mg/kg/day, HSFD control 282.4 ± 20.2) was 142 ± 42 mg/day, the “effect on MAP compared to the HSFD controls” value [2] was “did not have any effect on MAP” and the “attenuation of HSFD-induced increase of α-skeletal actin expression” value ([3]; 0.3 mg/kg/day, 7 weeks) was 1.3 fold. The “attenuation of HSFD-induced increase of α-skeletal actin expression” value ([3]; 3.0 mg/kg/day, 7 weeks) was 1.4 fold and the “attenuation of HSFD-induced increase of ANF expression” value ([3]; 0.3 and 3.0 mg/kg/day, P > 0.05 vs. HSFD) was “non-significant trend”.
With Cc1cc(-c2ccc(OC(F)(F)F)cc2)ccc1COc1ccccc1-c1cccc(-n2ncc(C(=O)O)c2C(F)(F)F)n1 [GSK2181236A, 1-(6-{2-[({3-methyl-4′-[(trifluoromethyl)oxy]-4-biphenylyl}methyl)oxy]phenyl}-2-pyridinyl)-5-(trifluoromethyl)-1H-pyrazole-4-carboxylic acid] the “increase of vasodilatory response by ODQ” value ([1]; 0.1 μM compound, ODQ 10 μM) was 41%, the “increase of vasodilatory response by ODQ” value ([1]; 1 μM compound, ODQ 10 μM) was 36% and the “increase of vasodilatory response by ODQ” value ([1]; 10 μM compound) was 21%. The “reduction of MAP compared to HSFD controls” value ([2]; 1.0 mg/kg/day for 7 week, not significant) was 9 mmHg, the “MALB excretion vs HSFD controls” value ([2]; 0.1 and 1.0 mg/kg/day) was “did not alter” and the “sodium excretion vs HSFD controls” value ([2]; 0.1 and 1.0 mg/kg/day) was “did not alter”. For the same molecule, the “urine output vs HSFD controls” value ([2]; 0.1 and 1.0 mg/kg/day) was “did not alter”, the “CO (cardiac output)” value ([2]; HSFD + 0.1 mg/kg/day) was 76 ± 7 mL/min and the “EDV (end diastolic volume)” value ([2]; HSFD + 0.1 mg/kg/day) was 331 ± 29 µL. For the same molecule, the “EF (ejection fraction)” value ([2]; HSFD + 0.1 mg/kg/day) was 67 ± 2%, the “ESV (end systolic volume)” value ([2]; HSFD + 0.1 mg/kg/day) was 110 ± 11 µL and the “SV (stroke volume)” value ([2]; HSFD + 0.1 mg/kg/day) was 222 ± 19 µL. For the same molecule, the “LVM/BW (left ventricular mass to body weight ratio)” value ([2]; HSFD + 0.1 mg/kg/day) was 2.69 ± 0.08 mg/g, the “CO (cardiac output)” value ([2]; HSFD + 1.0 mg/kg/day) was 80 ± 5 mL/min and the “EDV (end diastolic volume)” value ([2]; HSFD + 1.0 mg/kg/day) was 332 ± 22 µL. The “EF (ejection fraction)” value ([2]; HSFD + 1.0 mg/kg/day) was 71 ± 1%, the “ESV (end systolic volume)” value ([2]; HSFD + 1.0 mg/kg/day) was 98 ± 10 µL and the “SV (stroke volume)” value ([2]; HSFD + 1.0 mg/kg/day) was 234 ± 14 µL. For the same molecule, the “LVM/BW (left ventricular mass to body weight ratio)” value ([2]; HSFD + 1.0 mg/kg/day) was 2.82 ± 0.07 mg/g, the survival ([2]; HSFD, 0.1 mg/kg/day for 7 week) was “did not improve survival” and the survival rate ([2]; HSFD, 1.0 mg/kg/day for 7 week) was 69%. The MAP ([2]; HSFD, 1.0 mg/kg/day for 7 week) was 183 ± 7 mmHg, the “effect on MAP compared to the HSFD controls” value [2] was “did not have any effect on MAP” and the “attenuation of HSFD-induced increase of ANF expression” value ([3]; 1.0 mg/kg/day, 7 weeks) was 1.4 fold. For the same molecule, the “attenuation of HSFD-induced increase of α-skeletal actin expression” value ([3]; 1.0 mg/kg/day, 7 weeks) was 1.7 fold.

From PMC3389674, “Comparison of Soluble Guanylate Cyclase Stimulators and Activators in Models of Cardiovascular Disease Associated with Oxidative Stress” (Frontiers in Pharmacology, 2012)
